The source of these data is PubChem BioAssay (NCI).

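Where inhibition never reached the appropriate level, the endpoint shown equals the highest concentration tested. Otherwise, values were interpolated linearly from a five-concentration, 48-hour dose response in 96-well plates. GI50 is the concentration that inhibits growth by half. TGI is the concentration that stops growth completely.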

Holding throughout (assay): DTP human tumour cell line panel, 48 h
For experiment [1], the system named is ACHN renal.
The subject of experiment [2] is SF-539 CNS.
Experiment [3] has as its system OVCAR-5 ovarian.
The subject of experiment [4] is A498 renal.
The test system of experiment [5] is UACC-62 melanoma.
Experiment [6] concerns SN12C renal.
Experiment [7] deals with EKVX NSCLC.
The test system of experiment [8] is COLO 205 colon.
The test system of experiment [9] is A549 NSCLC.
Experiment [10] concerns KM12 colon.

In the case of `COc1ccc(-c2csc(Nc3cccc(-c4csc(C)n4)c3)n2)cc1`, the GI50 in experiment [1] is 0.859 µM; in experiment [2], 1.57 µM; in experiment [3], 3.45 µM; in experiment [4], 12.6 µM; in [5], 0.249 µM; in experiment [6], 0.97 µM. Moreover, the GI50 is 3.63 µM in experiment [7], 0.636 µM in [8], 0.902 µM in experiment [9] and 1.17 µM in experiment [10]. The TGI is 18.6 µM in experiment [1]; 8.27 µM in [2]; 48.6 µM in experiment [3]; 49.2 µM in [4]; 7.61 µM in experiment [5]; 7.96 µM in experiment [6]. In addition, the TGI in [7] was over 50 µM; in [8], over 26.1 µM; in experiment [9] it was 49.8 µM; in experiment [10], over 16.7 µM.
As to `O=C1Nc2ccc3c(c2/C1=C\c1cc2c(cc1Br)OCO2)OCO3`, the GI50 in experiment [1] is 0.689 µM; in experiment [2] it was 0.311 µM; in [3], 1.55 µM; in experiment [4], 0.287 µM; in [5], 0.359 µM; in experiment [6] it was 0.781 µM. Further, the GI50 is 0.639 µM in experiment [7], 0.356 µM in experiment [8], 0.731 µM in experiment [9] and 0.307 µM in [10]. Moreover, the TGI in experiment [1] amounted to 6.55 µM; in [2] it was 1.12 µM; in [3] it was 5.89 µM; in experiment [4], 1.08 µM; in [5], 3.23 µM; in [6], 6.47 µM. Also, the TGI in [7] came out at 8.09 µM; in [8], 2.66 µM; in experiment [9], 2.49 µM; in [10] it was 1.43 µM.
`CCCCCC[C@H]1C(=O)O[C@H](C)[C@H](NC(=O)c2cccc(NC=O)c2OC)C(=O)O[C@@H](C)[C@@H]1OC(=O)CCC` (tested in a mixture with another compound): the GI50 is 10.1 µM in [1]; 15.5 µM in experiment [2]; 20.9 µM in experiment [3]; 10 µM in experiment [4]; 6.54 µM in experiment [5]; 16.2 µM in [6]. Further, the GI50 is 6 µM in experiment [7], 12.6 µM in [8], 7.24 µM in [9] and 9.77 µM in [10]. Also, the TGI was 23.1 µM in experiment [1]; 33.3 µM in experiment [2]; 47.6 µM in experiment [3]; 29.7 µM in experiment [4]; 21.2 µM in [5]; 37.1 µM in experiment [6]. Moreover, the TGI in [7] came out at 24.2 µM; in [8], 26.7 µM; in experiment [9], 22.8 µM; in [10], 31.4 µM.
For `C[C@@H]1CCc2ncc(F)cc2[C@H]2CCCN2c2ccn3ncc(c3n2)C(=O)N1`, the GI50 was 65.9 µM in experiment [1]; 54.6 µM in [2]; over 100 µM in experiment [3]; 12.9 µM in experiment [4]; 69.5 µM in experiment [5]; 44.1 µM in experiment [6]. Moreover, the GI50 was 48.8 µM in experiment [7], 75.9 µM in experiment [8] and 69.3 µM in experiment [9]. The TGI was over 100 µM in experiment [1]; over 100 µM in [2]; over 100 µM in experiment [3]; 42.2 µM in [4]; over 100 µM in experiment [5]; over 100 µM in experiment [6]. Moreover, the TGI in experiment [7], in experiment [8], in experiment [9] and in experiment [10] was over 100 µM each time.
For the compound `C[As](C)SC1OCC(O)C(O)C1O` (centres undefined), the 50% growth inhibitory concentration (GI50) is 0.148 µM in [1]; 0.111 µM in experiment [2]; 0.208 µM in experiment [3]; 0.316 µM in experiment [4]; 0.195 µM in experiment [5]; 0.226 µM in experiment [6]. Besides, the GI50 in [7] is 1.29 µM; in [8] it was 0.747 µM; in [9] it was 1.63 µM; in [10] it was 0.387 µM. The TGI in [1] was determined as 0.624 µM; in experiment [2], 0.595 µM; in [3] it was 0.71 µM; in experiment [4], 1.22 µM; in [5] it was 0.556 µM; in experiment [6], 0.868 µM. Besides, the TGI in experiment [7] was 6.23 µM; in [8], 3.37 µM; in [9], over 33.7 µM; in experiment [10], 3.83 µM.
In the case of `Cc1ccc2ccc(-c3ccccc3)c3c2c1C(=O)c1ccccc1C3=O`, the TGI in [1], in experiment [2], in experiment [3], in [4], in experiment [5] and in [6] was over 100 µM each time. The TGI in experiment [7], in [8], in experiment [9] and in [10] was over 100 µM throughout.
